# Source: patent US20230015647A1, “INHIBITORS OF HISTONE DEMETHYLASES (PFI-63 AND PFI-90) FOR THE TREATMENT OF CANCER AND FOR THE INHIBITION OF HISTONE DEMETHYLASE IN CELLS” (The United States of America,as represented by the …, priority 2019, published 2023)
# “Also recorded” adds a separate entry of the source.
# Tests used:
# [1] = test system: PAX3-FOXO1 fusion transcription factor; assay: RH4 ALK-Luc luciferase reporter assay (PAX3-FOXO1 super enhancer activity); format: cell-based, human; conditions: RH4 ALK-Luc reporter
# Method: The screen was performed using two derivatives of RH4 FP-RMS cells: • (1) “ALK-Luc cells”—RH4 cells expressing a pGreenFire green fluorescent protein (GFP)-luciferase reporter (SEQ ID NO: 1) controlled by the PAX3-FOXO1-dependent intronic ALK super enhancer (for reporting on PAX3-FOXO1 activity) (FIGS. 1 and 2); and • (2) “CMV-Luc cells”—control RH4 cells in which the reporter is transcribed from a constitutively active cytomegalovirus (CMV) promoter. An Example of visualization via the ALK-Luc reporter is depicted in FIG. 3.
# The cells were enriched for reporter expression levels and used for assay development. A high throughput screening assay was developed after optimization of cell seeding density, length of incubation of cells prior to and post treatment with test compounds, and effect of passaging among other factors. The screen was designed to identify compounds that suppressed PAX3-FOXO1 activity without disrupting viability (at a short time points) or general transcription. The assay simultaneously monitors the function of the PAX3-FOXO1 super enhancer (also referred to as “ALK super enhancer”), general transcriptional activity as well as cell viability.
# The visual summary of the screening strategy is illustrated in FIG. 4. ALK-Luc cells were seeded in both white-walled and white-bottomed 384-well plates (Perkin Elmer, Cat #6007658) for luciferase assays and in clear 384-well plates (Perkin Elmer, Cat #6007688) for viability assay (XTT reduction) by transferring 27 μL of cell suspensions (seeding 3000 cells per well) into each well. The plates were then transferred into an incubator for 18-20 h. The CMV-Luc cells were similarly seeded into white plates and incubated.
# A pure compound library of 62,643 compounds consisting of synthetic and natural products described previously (Grohar et al., J Natl. Cancer Inst., 103: 962-978 (2011)) was then used in a high throughput screening campaign to identify inhibitors of PAX3-FOXO1. Stock DMSO Solutions of these compounds were used to prepare 100 μM solutions in growth medium in 384-well plates also containing 16 wells each of a positive control (Actinomycin D, Sigma, Cat #A1410) and negative control (DMSO). Screening compounds along with the positive and negative controls were added to assay plates by transferring 3 μL of the prepared 100 μM dilutions using an automated liquid handler (Agilent, Bravo). Treated plates were incubated for 24 h. At the end of this period, treated plates were allowed to equilibrate to room temperature for 30 minutes. SteadyLite Plus luciferase assay reagent powder (PerkinElmer, Cat #6066759) was reconstituted in its buffer in parallel and was also allowed to equilibrate to room temperature.
# After transferring 30 μL of the luciferase assay reagent using a liquid handler, plates were further incubated at room temperature for 10 minutes. Finally, luminescence measurements were carried out using a multi-label microplate reader (BMG, Pherastar FSX) set in luminescence mode. Cell viability was assessed by adding XTT reagent (10 μL per well) in clear plates containing treated ALK-Luc cells. XTT treated plates were read using a plate reader in absorbance mode at 450 nm (PerkinElmer, Envision) after further incubation for 1 hour to allow cells to metabolize XTT to a colored formazan product. Luminescence and XTT absorbance values were normalized to the average of the negative controls on each plate and were calculated as a percentage of these controls. Performance of the screening assay was routinely monitored via calculation of Z-factor (Zhang et al., J. Biomol. Screen., 4: 67-73 (1999)) with Z′ for all plates found to be >0.7.
# RH4 ALK-Luc and RH4 CMV-Luc cells were seeded into separate white-walled and bottomed 384-well plates and were incubated and treated with screen hits and epigenome compounds. The highest test concentration of these compounds (10-fold) were prepared from DMSO stock solutions via dilution in medium. […]
# [2] = test system: truncated KDM3B catalytic domain; assay: CPMG relaxation editing NMR binding assay; conditions: 100 μM
# From the text: (§1) A WaterLOGSY assay and a Carr-Purcell Meiboom-Gill (CPMG) based assay were used to investigate protein-ligand binding affinity between PFI-90 and a truncated KDM3B catalytic domain.
# CPMG (Carr-Purcell-Meiboom-Gill) Relaxation Editing Proton NMR is another drug-discovery NMR experiment that may be used in conjunction with WaterLOGSY to orthogonally validate the presence of a reversible binding interaction of mild to high affinity from a small molecule to a label-free target. In contrast to WaterLOGSY, all peaks are phased above the X-axis. Instead, this experiment filters out the proportion of peak height that is contributed from the quantity of small molecule bound to a target of high molecular weight (e.g., a protein). Once the attenuation of peak height is equivalent to a 20% reduction, the compound is said to bind, with an increasing ratio of bound to unbound small molecules manifesting in increasing signal attenuation.
# [3] = test system: truncated KDM3B catalytic domain; assay: WaterLOGSY NMR binding assay; conditions: 100 μM
# From the text: as §1
# In traditional proton NMR experiments, a series of peaks are generated that represent the structure of a solitary small molecule, whereas the WaterLOGSY experiment examines the behavior of a small molecule's peaks in the presence of a potential target. This is achieved by observing differences in interaction between a small molecule interacting with water co-occupying a binding cleft on a target as compared to water dispersed freely in solution. The experiment then depicts the ratio of bound to unbound small molecule by phasing proton NMR spectra on the X-axis in opposing directions depending on the magnitude of that ratio (i.e., increasing ratios above 1 will phase positively, decreasing ratios below 1 will phase negatively).
Compound,"Avg Absorbance @ 1 μM, ALK-Luc [1]","Avg Absorbance @ 10 μM, ALK-Luc [1]",binding (CPMG) [2],binding (WaterLOGSY) [3]
CCC(=O)NNC(=O)c1ccccn1 [PFI-69],104.3,94.4,,
CC(=O)NNC(=O)c1ccc2ccccc2n1 [PFI-80],90.1,96.6,,
O=CNNC(=O)c1ccccn1 [PFI-70],99.7,93.3,,
NNC(=O)c1ccc(C(=O)NN)o1 [PFI-79],97.0,97.6,,
NNC(=O)c1cccc(C(=O)NN)n1 [PFI-66],91.6,91.3,,
O=C(NNC(=O)c1ccccn1)c1ccccc1 [PFI-65],103.5,109.2,,
Cc1cccc(C(=O)NNC(=O)c2ccccc2)c1 [PFI-88],91.6,121.4,,
"O=C(O)CCC(=O)C(=O)O [Compound 2-OG, 2-oxoglutaric acid, reference compound]",,,did not bind; also recorded: does not bind,did not bind; also recorded: does not bind
Cc1cc(C)cc(OCC(=O)NNC(=O)c2ccccn2)c1 [PFI-84],99.4,56.5,,
CS(=O)(=O)NCCc1ccc(C(=O)NNC(=O)c2ccccn2)cc1 [PFI-85],99.7,100.2,,
CC(C)CC(=O)NNC(=O)c1ccco1 [PFI-89],95.1,92.5,,
NNC(=O)c1ccc(C(=O)NN)nc1 [PFI-71],100.1,108.6,,
CC(=O)NNC(=O)c1ccccn1 [PFI-68],95.0,98.0,,
CCC(CC)C(=O)NNC(=O)c1ccccn1 [PFI-81],97.7,89.1,,
O=CNNC(=O)c1cnccn1 [PFI-77],95.8,96.5,,
Cc1cccc(C(=O)NNC(=O)c2cccc(C)c2)c1 [PFI-67],94.6,112.8,,
O=C(Cc1ccc(Cl)cc1)NNC(=O)c1ccccn1 [PFI-83],97.8,32.2,,
Cc1nc(C)c(C(=O)NNC(=O)c2ccccc2)cc1C(=O)NNC(=O)c1ccccc1 [PFI-75],100.2,110.5,,
Cc1cccc(C(=O)NNC(=O)c2ccccc2)c1 [PFI-73],98.3,122.8,,
CC(=O)NNC(=O)c1cnccn1 [PFI-76],105.6,100.2,,
CCCC(=O)NNC(=O)c1ccccn1 [PFI-74],102.4,94.7,,
Cc1nc(C)c(C(=O)NN)cc1C(=O)NN [PFI-78],100.3,95.3,,
O=C(NNC(=O)c1cccc(C(=O)NNC(=O)c2ccc(Cl)c(Cl)c2)n1)c1ccc(Cl)c(Cl)c1 [PFI-72],,91.1,,
COCc1cccc(C(=O)NNC(=O)c2ccccn2)c1 [PFI-87],115.5,120.4,,
O=C(NNC(=O)c1ccccn1)c1ccccn1 [PFI-82],112.4,107.1,,
Cc1cc(C)cc(C(=O)NNC(=O)c2ccc(O)cc2)c1 [PFI-86],97.7,84.1,,
